Assays:
Type in all cases: cell-based
hTLR8 = biological target: T1, hTLR8 (Homo sapiens, UniProt Q9NR97); assay: SEAP reporter assay for hTLR-8 activity (HEK-Blue hTLR8 cells); settings: for EC50: ± SD, hTLR8 transfected HEK-Blue cells, Null subtracted, three independent measurements, 12 hours, >100 = no activity observed at 100 μM, read-out: EC50 TLR8
T1 construct: host or cells: HEK293 (HEK-Blue hTLR8)
T1 sequence (Q9NR97 27-1041): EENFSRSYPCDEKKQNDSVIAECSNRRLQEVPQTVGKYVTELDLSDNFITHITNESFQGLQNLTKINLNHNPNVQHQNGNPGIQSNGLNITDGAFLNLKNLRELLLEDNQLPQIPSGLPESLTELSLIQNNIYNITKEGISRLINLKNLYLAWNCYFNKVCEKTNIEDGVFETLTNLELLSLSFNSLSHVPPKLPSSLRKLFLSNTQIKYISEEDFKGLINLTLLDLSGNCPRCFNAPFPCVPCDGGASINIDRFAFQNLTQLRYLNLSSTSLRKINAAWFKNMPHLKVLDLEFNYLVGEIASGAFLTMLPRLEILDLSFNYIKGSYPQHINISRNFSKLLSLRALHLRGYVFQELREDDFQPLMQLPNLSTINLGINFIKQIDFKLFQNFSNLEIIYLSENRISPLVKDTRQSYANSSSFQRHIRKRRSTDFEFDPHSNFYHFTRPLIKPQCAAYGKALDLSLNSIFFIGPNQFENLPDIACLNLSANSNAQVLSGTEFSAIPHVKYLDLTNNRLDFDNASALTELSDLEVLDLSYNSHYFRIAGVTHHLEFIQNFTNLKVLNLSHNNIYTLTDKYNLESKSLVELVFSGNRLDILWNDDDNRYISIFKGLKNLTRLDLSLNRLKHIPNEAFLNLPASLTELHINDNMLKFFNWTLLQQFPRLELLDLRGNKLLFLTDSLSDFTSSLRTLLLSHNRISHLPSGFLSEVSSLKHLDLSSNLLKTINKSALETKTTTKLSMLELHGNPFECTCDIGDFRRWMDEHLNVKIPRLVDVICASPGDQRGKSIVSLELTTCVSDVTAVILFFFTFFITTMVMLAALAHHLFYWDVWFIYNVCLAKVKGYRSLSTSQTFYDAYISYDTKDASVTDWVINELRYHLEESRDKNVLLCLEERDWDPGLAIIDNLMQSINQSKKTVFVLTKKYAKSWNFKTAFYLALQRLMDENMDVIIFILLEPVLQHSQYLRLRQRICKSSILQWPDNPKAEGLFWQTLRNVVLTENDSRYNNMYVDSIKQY
Protocol: (§1) TLR activation induces NF-κB production and subsequent SEAP secretion, which is measured using HEK-Detection media (InvivoGen) containing a colorimetric substrate for SEAP (UV-Vis, 637 nm).
(§2) The experiments followed manufacturer protocol as follows: SEAP levels were measured via absorbance at 637 nm using HEK-Blue Detection cell culture medium (InvivoGen), which contains a SEAP-specific colorimetric substrate. Compound stock solutions were first diluted in sterile DMSO at a concentration of 10 mM. Lower concentrations were prepared by serial dilution of the initial 10 mM stock samples into sterile DMSO and these solutions (22 μL) were subsequently diluted into sterile H2O (198 μL) using a BioTek Precision XS pipetting system. HEK-Blue hTLR7, HEK-Blue hTLR8, Null 1−k, and Null 1 cell suspensions in sterile HEK-Blue Detection medium were prepared at a density of 220,000 cells per mL. Clear bottom, 96-well tissue culture treated plates (Corning) were seeded with hTLR7 and Null 1−k or hTLR8 and Null 1 cell suspensions (180 μL/well), after which 20 μL of the various sample concentrations in 10% v/v DMSO/H2O were added (20 μL) in quadruplicate wells to yield the desired testing concentration in 1% v/v DMSO cell suspension. Plates were incubated at 37° C. and 5% CO2 in the dark. Absorbance measurements were taken at 637 nm at 12 hours, 4 replicates per concentration point, per cell line (hTLR7, hTLR8, Null 1−k, Null 1). Three independent measurements on different days were performed for each analog.
(§3) Corresponding well absorbance values for each concentration tested were averaged with respect to days tested, and the average relative NF-κB induction (UV-Vis, 637 nm) of the null cell lines (Null 1-k or Null 1) were subtracted from the respective average TLR expressing cell line (hTLR7 or hTLR8) absorbance averages. […] The three independent, normalized averages for each analog were then pooled, and the data was fit using the Hill-Slope model (GraphPad Prism v7.0) using the non-linear fit from the [Agonist] vs. response—Variable Slope (four parameters) with a hill slope constrained to less than 3.

hTLR7 = biological target: T2, hTLR7 (Homo sapiens, UniProt Q9NYK1); assay: SEAP reporter assay for hTLR-7 activity (HEK-Blue hTLR7 cells); settings: for EC50: ± SD, hTLR7 transfected HEK-Blue cells, Null subtracted, three independent measurements, 12 hours, read-out: EC50 TLR7
T2 construct: host or cells: HEK293 (HEK-Blue hTLR7)
T2 sequence (Q9NYK1 27-1049): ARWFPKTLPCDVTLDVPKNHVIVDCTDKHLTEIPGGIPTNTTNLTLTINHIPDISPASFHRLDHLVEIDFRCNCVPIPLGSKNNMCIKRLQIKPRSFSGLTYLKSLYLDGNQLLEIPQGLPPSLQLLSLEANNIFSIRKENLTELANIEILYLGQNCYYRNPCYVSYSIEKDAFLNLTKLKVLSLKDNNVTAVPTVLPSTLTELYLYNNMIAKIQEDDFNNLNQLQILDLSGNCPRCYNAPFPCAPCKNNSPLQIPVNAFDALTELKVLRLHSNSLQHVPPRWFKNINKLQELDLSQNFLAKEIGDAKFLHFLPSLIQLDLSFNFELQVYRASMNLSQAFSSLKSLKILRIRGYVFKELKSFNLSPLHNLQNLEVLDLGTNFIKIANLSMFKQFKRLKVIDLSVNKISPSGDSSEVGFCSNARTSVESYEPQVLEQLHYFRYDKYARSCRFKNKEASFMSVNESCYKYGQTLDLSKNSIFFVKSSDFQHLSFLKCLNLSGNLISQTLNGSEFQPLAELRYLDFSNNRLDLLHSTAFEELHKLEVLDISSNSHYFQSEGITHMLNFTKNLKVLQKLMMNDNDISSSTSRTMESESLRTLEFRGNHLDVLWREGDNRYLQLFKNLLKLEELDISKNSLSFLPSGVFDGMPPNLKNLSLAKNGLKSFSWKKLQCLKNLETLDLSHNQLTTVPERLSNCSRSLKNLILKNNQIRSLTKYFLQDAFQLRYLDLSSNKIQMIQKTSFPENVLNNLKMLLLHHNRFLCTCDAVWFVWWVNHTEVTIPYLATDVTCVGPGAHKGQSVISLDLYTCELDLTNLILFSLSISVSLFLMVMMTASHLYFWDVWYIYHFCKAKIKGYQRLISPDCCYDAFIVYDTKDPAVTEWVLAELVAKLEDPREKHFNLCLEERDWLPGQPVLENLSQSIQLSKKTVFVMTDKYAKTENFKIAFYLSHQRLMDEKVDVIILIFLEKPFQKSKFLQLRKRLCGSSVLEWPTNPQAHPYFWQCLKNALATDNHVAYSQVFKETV
Protocol: as §1, §2, §3

[1] = system: canine peripheral blood mononuclear cells (cPBMCs); assay: Cytokine production in canine PBMCs by ELISA (Example 2); settings: for Cytokine IFNg / Cytokine IL-2 / Cytokine IL-6 / Cytokine IL-10 / Cytokine IL-12 / Cytokine TNFa: ± SD, 29 hours, ELISA, triplicate
Protocol: The imidazoquinolines were further screened for cytokine production in canine peripheral blood mononuclear cells (cPBMCs). […] TNFα and IL-12 were chosen as they are typically seen in a Th-1 cytokine response.
Peripheral blood from a healthy canine donor was obtained with appropriate informed consent of the owner and under approved institutional guidelines. Blood (8 mL per tube) was drawn via sterile venipuncture into a BD Vacutainer cell preparation tube containing sodium heparin (BD Biosciences). PBMCs were isolated within one hour following procurement by density gradient centrifugation according to the manufacturer protocol and resuspended to 2.22×10^6 cells/mL in sterile RPMI 1640 medium with L-glutamine (Gibco) supplemented with 100 U/mL penicillin, 100 μg/mL streptomycin (Corning) and 10% (v/v) heat-inactivated Fetalgro (RMBIO). Corning 3917, 96-well tissue culture treated plates were seeded with the PBMC suspension (180 μL/well), 20 μL of the serially diluted TLR agonists were added in triplicate to yield the desired concentrations in a 1% (v/v) DMSO cell suspension. Cells were incubated at 37° C. in 5% CO2 for 9 hours (FIGS. 3A-3D) or 29 hours (Table 2) after which supernatants were removed and frozen at −80° C. Cytokine secretion levels were measured by ELISA (Duoset, R&D Systems) according to the manufacturer protocol. Samples and standards (n=3) were thawed and plated onto a Maxisorp flat-bottom, 384-well plate (Thermo Scientific) using a BioTek Precision XS pipetting system. Cytokine concentrations were determined by a hyperbolic or four-parameter logistic non-linear regression of the recombinant standards and subsequent interpolation using Graphpad Prism 7.0.

Row | EC50 (hTLR8) [nM] | EC50 (hTLR7) [nM] | Compound | agonist for TLR8 receptor (in words) (hTLR8) | agonist for TLR7 receptor (in words) (hTLR7) | Cytokine IFNg ([1]; 20 μM) [pg/mL] | Cytokine IL-2 ([1]; 20 μM) [pg/mL] | Cytokine IL-6 ([1]; 20 μM) [pg/mL] | Cytokine IL-10 ([1]; 20 μM) [pg/mL] | Cytokine IL-12 ([1]; 20 μM) [pg/mL] | Cytokine TNFa ([1]; 20 μM) | cytokine induction (in words) [1] | IL-12 response (in words) ([1]; 20 μM) | TNFα response (in words) ([1]; 20 μM)
1 | > 100000 | 300 ± 20 | CCCCc1nc2c(N)nc3cc(Cl)ccc3c2n1CC(C)C [Compound 6, 4-Amino-2-butyl-7-chloro-1-(2-methylpropyl)-1H-imidazo[4,5-c]quinoline] | – | – | 7 ± 1 | 63 ± 44 | 240 ± 67 | 14 ± 4 | 760 ± 50 | 91 ± 20 pg/mL | – | – | –
2 | > 100000 | 910 ± 90 | CCOCc1nc2c(N)nc3cc(Cl)ccc3c2n1CC(C)C [Compound 7, 4-Amino-7-chloro-2-(ethoxymethyl)-1-(2-methylpropyl)-1H-imidazo[4,5-c]quinoline] | – | – | 5 ± 5 | 50 ± 22 | 280 ± 81 | 20 ± 1 | 781 ± 40 | 114 ± 25 pg/mL | – | – | –
3 | 4900 ± 600 | 630 ± 30 | CCOCc1nc2c(N)nc3cc(Cl)ccc3c2n1CC(C)(C)O [Compound 9, 4-Amino-7-chloro-2-(ethoxymethyl)-1-(2-hydroxy-2-methylpropyl)-1H-imidazo[4,5-c]quinoline] | – | – | 16 ± 2 | 76 ± 59 | 320 ± 76 | 12 ± 3 | 1900 ± 130 | 70 ± 8 pg/mL | – | – | –

The remaining lines, values behind:

Row | Compound | EC50 (hTLR8) [nM] | EC50 (hTLR7) [nM] | agonist for TLR8 receptor (in words) (hTLR8) | agonist for TLR7 receptor (in words) (hTLR7) | Cytokine IFNg ([1]; 20 μM) [pg/mL] | Cytokine IL-2 ([1]; 20 μM) [pg/mL] | Cytokine IL-6 ([1]; 20 μM) [pg/mL] | Cytokine IL-10 ([1]; 20 μM) [pg/mL] | Cytokine IL-12 ([1]; 20 μM) [pg/mL] | Cytokine TNFa ([1]; 20 μM) | cytokine induction (in words) [1] | IL-12 response (in words) ([1]; 20 μM) | TNFα response (in words) ([1]; 20 μM)
4 | CC(C)Cn1cnc2c(N)nc3ccccc3c21 [Compound 1, imiquimod, reference compound] | 25000 ± 3000 | 6800 ± 800 | agonists | agonists | – | – | – | – | – | – | – | – | –
5 | CCCCc1nc2c(N)nc3cc(OC)ccc3c2n1CC(C)C [Compound 4, 4-Amino-2-butyl-7-methoxy-1-(2-methylpropyl)-1H-imidazo[4,5-c]quinoline] | > 100000 | 110 ± 10 | – | – | 0 | 30 ± 29 | 500 ± 140 | 37 ± 13 | 746 ± 130 | 49 ± 9 pg/mL | – | – | –
6 | CCCCc1nc2c(N)nc3cc(OC)ccc3c2n1CC(C)(C)O [Compound 5, 4-Amino-2-butyl-1-(2-hydroxy-2-methylpropyl)-7-methoxy-1H-imidazo[4,5-c]quinoline] | 1700 ± 300 | 81 ± 9 | – | – | 14.5 ± 6 | 82 ± 56 | 290 ± 63 | 14 ± 2 | 2000 ± 160 | 64 ± 12 pg/mL | – | – | –
7 | CCCCc1nc2c(N)nc3cc(Cl)ccc3c2n1CC(C)(C)O [Compound 8, 4-Amino-2-butyl-7-chloro-1-(2-hydroxy-2-methylpropyl)-1H-imidazo[4,5-c]quinoline] | 1500 ± 200 | 84 ± 7 | – | – | 13 ± 10 | 55 ± 30 | 230 ± 44 | 7 ± 6 | 1700 ± 330 | 22 ± 4 pg/mL | – | – | –
8 | CCCCc1nc2c(N)nc3cc(C#N)ccc3c2n1CC(C)C [Compound 10, 4-Amino-2-butyl-7-carbonitrile-1-(2-methylpropyl)-1H-imidazo[4,5-c]quinoline] | > 100000 | 990 ± 400 | – | – | 13 ± 5 | 60 ± 41 | 350 ± 95 | 37 ± 10 | 920 ± 170 | 10 ± 1 pg/mL | – | – | –
9 | CCCCc1nc2c(N)nc3cc(O)ccc3c2n1CC(C)C [Compound 14, 4-Amino-2-butyl-7-hydroxy-1-(2-methylpropyl)-1H-imidazo[4,5-c]quinoline] | – | 73 ± 5 | – | – | 9 ± 8 | 79 ± 19 | 330 ± 92 | 17 ± 3 | 102 ± 65 | 270 ± 70 - pg/mL | barely potentiates any cytokine induction | one of the lowest IL-12 responses | one of the highest TNFα responses
